Assay results published in US10457677B2 (priority 2015, dated 2019).
Like-named read-outs stand apart in the source and are kept apart here.

What was measured:
[1] = test system: phosphorylation of CHK2 (phospho-Thr68) in HCT116 cells; experiment: Cellular pCHK2 assay: bleomycin-induced phosphorylation of CHK2 (phospho-Thr68), immunofluorescence high-content analysis; assay type: cell-based, human; conditions: Homo sapiens, HCT-116, 4 h, read-out: IC50 (pCHK2)
How it was run: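 HCT116 cells in DMEM with 10% FCS, incubated overnight at 37° C, then given compounds (1 nM to 30 μM, 0.5% DMSO) together with 10 μM bleomycin. Phospho-Thr68 CHK2 immunostained and imaged by high-content imager; nuclei with pCHK2 above background counted, cell count from propidium iodide DNA stain.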

PI3K (p120γ) (human) = PI3K (p120γ) (human) (Homo sapiens (Human), UniProt P48736); experiment: PI3K (p120γ) (human), non-radioactive assay (HTRF); assay type: biochemical; conditions: read-out: IC50 (PI3Kgamma)
Sequence of PI3K (p120γ) (human) (P48736 whole entry, the tested form may be a part): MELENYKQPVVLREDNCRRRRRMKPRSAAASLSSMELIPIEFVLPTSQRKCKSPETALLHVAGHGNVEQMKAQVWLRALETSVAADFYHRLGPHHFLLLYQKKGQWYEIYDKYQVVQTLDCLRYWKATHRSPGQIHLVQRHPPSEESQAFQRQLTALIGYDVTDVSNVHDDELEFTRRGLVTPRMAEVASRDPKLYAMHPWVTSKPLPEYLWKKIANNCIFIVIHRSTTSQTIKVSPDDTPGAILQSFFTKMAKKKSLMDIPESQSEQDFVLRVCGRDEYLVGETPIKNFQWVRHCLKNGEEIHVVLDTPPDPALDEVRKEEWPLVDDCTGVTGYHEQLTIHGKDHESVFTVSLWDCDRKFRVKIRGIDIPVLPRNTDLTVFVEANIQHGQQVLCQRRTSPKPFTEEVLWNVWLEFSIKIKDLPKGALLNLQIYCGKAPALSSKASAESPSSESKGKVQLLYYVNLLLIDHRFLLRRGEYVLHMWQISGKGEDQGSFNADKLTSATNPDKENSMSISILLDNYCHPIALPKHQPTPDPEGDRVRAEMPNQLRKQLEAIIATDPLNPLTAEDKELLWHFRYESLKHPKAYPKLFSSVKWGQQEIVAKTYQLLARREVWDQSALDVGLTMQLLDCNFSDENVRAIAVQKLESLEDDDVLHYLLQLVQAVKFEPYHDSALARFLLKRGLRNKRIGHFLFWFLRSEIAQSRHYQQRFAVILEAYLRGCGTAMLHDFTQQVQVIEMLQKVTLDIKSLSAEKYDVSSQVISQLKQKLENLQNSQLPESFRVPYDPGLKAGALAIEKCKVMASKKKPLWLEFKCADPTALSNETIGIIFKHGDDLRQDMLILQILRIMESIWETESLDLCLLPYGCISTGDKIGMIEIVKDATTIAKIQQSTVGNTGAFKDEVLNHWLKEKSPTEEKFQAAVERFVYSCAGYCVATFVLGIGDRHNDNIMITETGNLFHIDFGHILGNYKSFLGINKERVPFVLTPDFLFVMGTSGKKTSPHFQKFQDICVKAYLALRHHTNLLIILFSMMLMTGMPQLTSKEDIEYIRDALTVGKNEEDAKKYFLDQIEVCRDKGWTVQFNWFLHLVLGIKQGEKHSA
How it was run: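 Enzyme was run with 10 μM phosphatidylinositol 4,5-bisphosphate, starting the reaction with MgATP at an unspecified level, for 30 min at room temperature. The stop used EDTA plus biotinylated PIP3, and detection used Eu-anti-GST, GST-GRP1 PH domain and streptavidin-APC. Signal was taken as HTRF = 10000×(Em665nm/Em620nm).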

PI3K p110δ/p85α (human) = PI3K p110δ/p85α (human) (Homo sapiens (Human), UniProt O00329); experiment: PI3K p110δ/p85α (human), non-radioactive assay (HTRF); assay type: biochemical; conditions: read-out: IC50 (PI3Kdelta)
Sequence of PI3K p110δ/p85α (human) (O00329 whole entry): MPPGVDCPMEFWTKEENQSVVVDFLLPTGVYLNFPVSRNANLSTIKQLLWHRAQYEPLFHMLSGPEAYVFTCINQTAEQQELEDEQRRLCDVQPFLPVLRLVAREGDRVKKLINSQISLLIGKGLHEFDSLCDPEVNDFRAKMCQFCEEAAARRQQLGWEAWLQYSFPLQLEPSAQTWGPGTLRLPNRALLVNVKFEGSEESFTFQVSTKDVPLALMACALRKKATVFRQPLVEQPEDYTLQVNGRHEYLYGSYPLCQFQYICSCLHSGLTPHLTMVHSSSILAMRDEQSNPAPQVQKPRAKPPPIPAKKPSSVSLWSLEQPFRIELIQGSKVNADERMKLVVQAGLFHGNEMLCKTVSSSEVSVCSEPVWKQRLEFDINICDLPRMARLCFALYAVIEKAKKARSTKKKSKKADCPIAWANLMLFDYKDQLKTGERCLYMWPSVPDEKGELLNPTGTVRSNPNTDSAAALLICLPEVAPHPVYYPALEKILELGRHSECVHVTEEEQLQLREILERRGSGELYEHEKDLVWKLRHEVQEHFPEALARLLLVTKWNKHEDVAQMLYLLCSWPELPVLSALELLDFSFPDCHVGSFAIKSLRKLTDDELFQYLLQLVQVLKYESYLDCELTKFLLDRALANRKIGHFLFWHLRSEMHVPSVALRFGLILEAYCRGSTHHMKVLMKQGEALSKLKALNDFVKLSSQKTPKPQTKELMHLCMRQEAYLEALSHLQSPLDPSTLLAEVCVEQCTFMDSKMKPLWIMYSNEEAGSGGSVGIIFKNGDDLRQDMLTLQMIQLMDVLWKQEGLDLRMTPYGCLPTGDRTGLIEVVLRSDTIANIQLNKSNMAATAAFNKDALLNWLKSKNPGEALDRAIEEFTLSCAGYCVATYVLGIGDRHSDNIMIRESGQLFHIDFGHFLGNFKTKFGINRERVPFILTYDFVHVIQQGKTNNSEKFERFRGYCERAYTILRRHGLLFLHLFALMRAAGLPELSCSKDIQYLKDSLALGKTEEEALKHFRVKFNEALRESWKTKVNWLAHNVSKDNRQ
Sequence of PI3K p110δ/p85α (human) (P27986 whole entry partner): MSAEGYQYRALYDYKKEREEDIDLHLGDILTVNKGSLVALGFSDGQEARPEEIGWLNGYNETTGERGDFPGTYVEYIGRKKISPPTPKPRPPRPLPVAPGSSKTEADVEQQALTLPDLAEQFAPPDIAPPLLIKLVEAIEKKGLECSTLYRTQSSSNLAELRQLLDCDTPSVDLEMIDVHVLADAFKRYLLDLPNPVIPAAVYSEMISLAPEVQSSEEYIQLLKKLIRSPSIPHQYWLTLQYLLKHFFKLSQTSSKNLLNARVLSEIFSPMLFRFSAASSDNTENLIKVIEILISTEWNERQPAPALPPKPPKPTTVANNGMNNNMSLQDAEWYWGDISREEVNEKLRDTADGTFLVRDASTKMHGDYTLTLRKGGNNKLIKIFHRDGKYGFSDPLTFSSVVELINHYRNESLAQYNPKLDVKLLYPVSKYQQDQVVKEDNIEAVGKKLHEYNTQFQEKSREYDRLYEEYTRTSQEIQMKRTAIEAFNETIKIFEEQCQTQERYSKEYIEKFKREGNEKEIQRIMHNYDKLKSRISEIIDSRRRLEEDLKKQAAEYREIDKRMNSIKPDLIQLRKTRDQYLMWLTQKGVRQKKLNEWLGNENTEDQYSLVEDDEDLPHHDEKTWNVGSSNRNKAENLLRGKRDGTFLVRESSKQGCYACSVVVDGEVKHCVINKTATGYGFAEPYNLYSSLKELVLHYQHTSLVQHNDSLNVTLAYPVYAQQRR

PI3K p110β/p85α (human) = PI3K p110β/p85α (human) (Homo sapiens (Human), UniProt P42338); experiment: PI3K p110β/p85α (human), non-radioactive assay (HTRF); assay type: biochemical
Sequence of PI3K p110β/p85α (human) (P42338 whole entry, the tested form may be a part): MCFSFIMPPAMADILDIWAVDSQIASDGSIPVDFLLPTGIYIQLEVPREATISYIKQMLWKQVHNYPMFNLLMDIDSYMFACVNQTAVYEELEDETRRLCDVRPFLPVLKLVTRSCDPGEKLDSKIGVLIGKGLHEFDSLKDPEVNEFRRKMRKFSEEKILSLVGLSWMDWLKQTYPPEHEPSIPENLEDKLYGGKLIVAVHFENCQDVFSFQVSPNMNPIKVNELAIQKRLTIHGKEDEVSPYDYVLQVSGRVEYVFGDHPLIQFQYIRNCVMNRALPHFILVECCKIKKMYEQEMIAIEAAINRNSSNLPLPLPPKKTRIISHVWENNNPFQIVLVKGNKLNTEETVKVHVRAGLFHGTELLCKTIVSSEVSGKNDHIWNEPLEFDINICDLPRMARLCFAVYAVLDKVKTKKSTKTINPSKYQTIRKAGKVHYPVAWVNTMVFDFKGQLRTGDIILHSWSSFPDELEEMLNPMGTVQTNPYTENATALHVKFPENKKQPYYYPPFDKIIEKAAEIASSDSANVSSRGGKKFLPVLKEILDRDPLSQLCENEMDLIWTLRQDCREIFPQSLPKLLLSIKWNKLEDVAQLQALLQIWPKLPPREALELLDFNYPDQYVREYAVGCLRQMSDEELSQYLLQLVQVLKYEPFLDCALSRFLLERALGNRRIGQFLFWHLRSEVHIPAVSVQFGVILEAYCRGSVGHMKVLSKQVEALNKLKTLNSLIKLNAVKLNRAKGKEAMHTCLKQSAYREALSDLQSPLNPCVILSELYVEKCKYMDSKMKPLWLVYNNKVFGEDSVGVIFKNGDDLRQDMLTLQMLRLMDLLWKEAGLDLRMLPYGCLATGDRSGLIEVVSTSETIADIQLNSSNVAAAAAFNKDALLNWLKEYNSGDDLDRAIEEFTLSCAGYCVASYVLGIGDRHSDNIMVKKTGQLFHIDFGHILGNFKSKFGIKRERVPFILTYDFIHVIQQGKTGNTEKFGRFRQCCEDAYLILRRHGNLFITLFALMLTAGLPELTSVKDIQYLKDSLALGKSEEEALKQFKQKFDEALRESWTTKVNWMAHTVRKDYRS
Sequence of PI3K p110β/p85α (human) (P27986 whole entry partner, the tested form may be a part): as the sequence (P27986 whole entry partner) above
How it was run: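 Human p110β/p85α incubated with 10 μM phosphatidylinositol 4,5-bisphosphate and MgATP for 30 min at room temperature, stopped with EDTA plus biotinylated PIP3. HTRF detection used a Eu-anti-GST antibody, GST-GRP1 PH domain and streptavidin-APC, with signal taken as 10000×(Em665nm/Em620nm).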

PI3K p110α/p85α (human) = PI3K p110α/p85α (human) (Homo sapiens (Human), UniProt P42336); experiment: PI3K p110α/p85α (human), non-radioactive assay (HTRF); assay type: biochemical; conditions: read-out: IC50 (PI3Kalpha)
Sequence of PI3K p110α/p85α (human) (P42336 whole entry): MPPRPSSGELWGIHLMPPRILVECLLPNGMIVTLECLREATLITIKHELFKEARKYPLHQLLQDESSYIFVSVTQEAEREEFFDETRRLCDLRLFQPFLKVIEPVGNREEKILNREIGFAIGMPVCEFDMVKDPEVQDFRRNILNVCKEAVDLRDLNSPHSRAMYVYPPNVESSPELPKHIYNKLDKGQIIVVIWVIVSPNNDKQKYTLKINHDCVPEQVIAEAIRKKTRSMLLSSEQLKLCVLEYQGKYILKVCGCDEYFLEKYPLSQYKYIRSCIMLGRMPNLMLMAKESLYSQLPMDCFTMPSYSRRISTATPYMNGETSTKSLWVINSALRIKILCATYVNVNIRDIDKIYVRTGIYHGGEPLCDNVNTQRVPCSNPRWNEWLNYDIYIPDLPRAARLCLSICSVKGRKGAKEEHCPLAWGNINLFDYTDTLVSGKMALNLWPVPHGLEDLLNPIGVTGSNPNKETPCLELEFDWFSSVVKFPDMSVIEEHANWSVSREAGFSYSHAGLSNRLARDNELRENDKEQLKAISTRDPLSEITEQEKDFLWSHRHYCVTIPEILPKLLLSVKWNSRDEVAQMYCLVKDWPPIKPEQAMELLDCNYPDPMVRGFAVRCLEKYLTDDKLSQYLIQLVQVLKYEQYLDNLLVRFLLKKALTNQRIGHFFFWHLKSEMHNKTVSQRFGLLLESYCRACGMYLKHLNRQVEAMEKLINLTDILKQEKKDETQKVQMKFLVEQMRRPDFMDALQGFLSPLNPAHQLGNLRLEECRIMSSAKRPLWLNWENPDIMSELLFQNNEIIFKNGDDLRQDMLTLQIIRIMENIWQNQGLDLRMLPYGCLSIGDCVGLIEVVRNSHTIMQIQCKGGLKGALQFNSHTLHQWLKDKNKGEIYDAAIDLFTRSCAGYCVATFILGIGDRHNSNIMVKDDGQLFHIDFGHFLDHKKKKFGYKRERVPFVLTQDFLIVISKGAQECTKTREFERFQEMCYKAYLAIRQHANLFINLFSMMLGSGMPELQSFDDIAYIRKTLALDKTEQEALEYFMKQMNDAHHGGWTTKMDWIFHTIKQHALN
Sequence of PI3K p110α/p85α (human) (P27986 whole entry partner): as the sequence (P27986 whole entry partner) above

mTOR (human) = mTOR (human) (Homo sapiens (Human), UniProt P42345); experiment: mTOR (human) kinase assay, [γ-33P-ATP] filter assay; assay type: biochemical
How it was run: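 Radiometric filter assay: enzyme in 50 mM HEPES pH 7.5, 1 mM EGTA, 0.01% Tween 20, 3 mM MnCl2, 2 mg/ml substrate with [γ-33P-ATP], started with MgATP. Incubated 40 min at room temperature, stopped with 3% phosphoric acid; incorporation measured on P30 filtermat by scintillation counting.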

[2] = molecular target: purified human recombinant ATM (ataxia telangiectasia mutated), full length (Homo sapiens (Human), UniProt Q13315); experiment: ATM kinase assay - determination of ATM inhibition (IC50 ATM), TR-FRET; assay type: biochemical
How it was run: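 Full-length enzyme, expressed in a mammalian cell line, pre-incubated 15 min with inhibitor in 25 mM HEPES pH 8.0, 10 mM Mg(CH3COO)2, 1 mM MnCl2, 0,1% BSA, 0,01% Brij 35, 5 mM DTT. Full-length cmyc-p53 (Sf21-expressed) and ATP then added, 30-35 min at 22° C. EDTA stop; p53 S15 phosphorylation read by TR-FRET antibodies.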

SMILES	IC50 [1] [µM]	IC50 (PI3K (p120γ) (human)) [µM]	IC50 (PI3K p110δ/p85α (human)) [µM]	IC50 (PI3K p110β/p85α (human); read-out: IC50 (PI3Kbeta)) [µM]	IC50 (PI3K p110α/p85α (human)) [µM]	IC50 (mTOR (human)) [µM]	IC50 [2] [µM]	IC50 ([2]; 10 μM ATP, substrate p53) [µM]	IC50 (PI3K p110β/p85α (human)) [µM]
COc1cc2ncc3c(c2cc1-c1cn[nH]c1)n(-c1ccnn1C)c(=O)n3C [Compound Example 41, 7-Methoxy-3-methyl-1-(2-methyl-2H-pyrazol-3-yl)-8-(1H-pyrazol-4-yl)-1,3-dihydroimidazo[4,5-c] quinolin-2-one]	0.2 to 1	> 30	> 30	> 30	> 30	> 10	< 0.01	< 0.01	
COc1cc2ncc3c(c2cc1-c1cnn(C)c1)n(-c1c[nH]nc1C)c(=O)n3C [Compound Example 43, 7-Methoxy-3-methyl-1-(3-methyl-1H-pyrazol-4-yl)-8-(1-methyl-1H-pyrazol-4-yl)-1,3-dihydroimidazo[4,5-c]-quinolin-2-one]	0.2 to 1	> 30	> 30	> 30	> 30	> 30	< 0.001	< 0.001	
COc1cc2ncc3c(c2cc1-c1cnn(C)c1)n(-c1c(F)cncc1C#N)c(=O)n3C [Compound Example 44, 5-Fluoro-4-[7-methoxy-3-methyl-8-(1-methyl-1H-pyrazol-4-yl)-2-oxo-2,3-dihydroimidazo[4,5-c]-quinolin-1-yl]nicotinonitrile]	0.2 to 1	> 30	> 30	> 30	> 30	> 30	< 0.01	< 0.01	
COc1cc2ncc3c(c2cc1-c1cnn(C)c1)n(-c1ccnc(C#N)c1)c(=O)n3C [Compound Example 45, 4-[7-Methoxy-3-methyl-8-(1-methyl-1H-pyrazol-4-yl)-2-oxo-2,3-dihydroimidazo-[4,5-c]quinolin-1-yl]pyridine-2-carbonitrile]	0.2 to 1	> 30	> 30	> 30	> 30	> 30	< 0.05	< 0.05	
COc1cc2ncc3c(c2cc1-c1cnn(C)c1)n(-c1ccncc1C#N)c(=O)n3C [Compound Example 46, 4-[7-Methoxy-3-methyl-8-(1-methyl-1H-pyrazol-4-yl)-2-oxo-2,3-dihydroimidazo-[4,5-c]quinolin-1-yl]-nicotinonitrile]	0.2 to 1	> 30	> 30	> 30	> 30	> 30	< 0.05	< 0.05	
COc1cc2ncc3c(c2cc1-c1cnn(C)c1)n(-c1nccs1)c(=O)n3C [Compound Example 47, 7-Methoxy-3-methyl-8-(1-methyl-1H-pyrazol-4-yl)-1-thiazol-2-yl-1,3-dihydro-imidazo[4,5-c]quinolin-2-one]	0.2 to 1	> 30	> 30	> 30	> 30	> 30	< 0.01	< 0.01	
COc1cc2ncc3c(c2cc1-c1cnn(C)c1)n(-c1ccnn1C)c(=O)n3C [Compound Example 49, 7-Methoxy-3-methyl-1-(2-methyl-2H-pyrazol-3-yl)-8-(1-methyl-1H-pyrazol-4-yl)-1,3-dihydroimidazo[4,5-c]-quinolin-2-one]	0.2 to 1	> 30	> 30	> 30	> 30	> 30	< 0.01	< 0.01	
COc1cc2ncc3c(c2cc1-c1cn(C)nn1)n(-c1ncccc1F)c(=O)n3C [Compound Example 51, 1-(3-Fluoropyridin-2-yl)-7-methoxy-3-methyl-8-(1-methyl-1H-1,2,3-triazol-4-yl)-1,3-dihydroimidazo-[4,5-c]quinolin-2-one]	0.2 to 1	> 30	> 30	> 30	> 30	> 30	< 0.01	< 0.01	
COc1cc2ncc3c(c2cc1-c1cnn(C)c1)n(-c1cn[nH]c1)c(=O)n3C [Compound Example 53, 7-Methoxy-3-methyl-8-(1-methyl-1H-pyrazol-4-yl)-1-(1H-pyrazol-4-yl)-1,3-dihydroimidazo[4,5-c]-quinolin-2-one]	0.2 to 1	> 30	> 30	> 30	> 30	> 30	< 0.01	< 0.01	
COc1cc2ncc3c(c2cc1-c1cnn(C)c1)n(-c1cnn(C2CCOCC2)c1)c(=O)n3C [Compound Example 55, 7-Methoxy-3-methyl-8-(1-methyl-1H-pyrazol-4-yl)-1-[1-(tetrahydropyran-4-yl)-1H-pyrazol-4-yl]-1,3-dihydroimidazo[4,5-c]-quinolin-2-one]	0.2 to 1	> 30	> 30	> 30	> 30	> 30	< 0.01	< 0.01	
COc1cc2ncc3c(c2cc1-c1cnn(C)c1)n(-c1cncnc1)c(=O)n3C [Compound Example 57, 7-Methoxy-3-methyl-8-(1-methyl-1H-pyrazol-4-yl)-1-pyrimidin-5-yl-1,3-dihydro-imidazo[4,5-c]quinolin-2-one]	0.2 to 1	> 30	> 30	> 30	> 30	> 30	< 0.05	< 0.05	
COc1cc2ncc3c(c2cc1-c1cn[nH]c1)n(-c1cn(C)nc1C)c(=O)n3C [Example 3]	< 0.2	> 30	> 30		> 30	> 5	< 0.001	< 0.001	> 30
COc1cc2ncc3c(c2cc1-c1cn[nH]c1)n(-c1ncc(F)cc1F)c(=O)n3C [Example 6]	< 0.2	> 30	> 30		> 30	> 30	< 0.001	< 0.001	> 30
COc1cc2ncc3c(c2cc1-c1cnn(C)c1)n(-c1ccncc1)c(=O)n3C [compound 58, 7-Methoxy-3-methyl-8-(1-methyl-1H-pyrazol-4-yl)-1-pyridin-4-yl-1,3-dihydro-imidazo[4,5-c]quinolin-2-one]	0.2 to 1	> 30	> 30	> 30	> 30	> 30	< 0.01	< 0.01	
